Common to all, as to assay type: biochemical
The target in one test is T1, FLT3-ITD (Homo sapiens, UniProt P36888).
T1 sequence (P36888 1-993): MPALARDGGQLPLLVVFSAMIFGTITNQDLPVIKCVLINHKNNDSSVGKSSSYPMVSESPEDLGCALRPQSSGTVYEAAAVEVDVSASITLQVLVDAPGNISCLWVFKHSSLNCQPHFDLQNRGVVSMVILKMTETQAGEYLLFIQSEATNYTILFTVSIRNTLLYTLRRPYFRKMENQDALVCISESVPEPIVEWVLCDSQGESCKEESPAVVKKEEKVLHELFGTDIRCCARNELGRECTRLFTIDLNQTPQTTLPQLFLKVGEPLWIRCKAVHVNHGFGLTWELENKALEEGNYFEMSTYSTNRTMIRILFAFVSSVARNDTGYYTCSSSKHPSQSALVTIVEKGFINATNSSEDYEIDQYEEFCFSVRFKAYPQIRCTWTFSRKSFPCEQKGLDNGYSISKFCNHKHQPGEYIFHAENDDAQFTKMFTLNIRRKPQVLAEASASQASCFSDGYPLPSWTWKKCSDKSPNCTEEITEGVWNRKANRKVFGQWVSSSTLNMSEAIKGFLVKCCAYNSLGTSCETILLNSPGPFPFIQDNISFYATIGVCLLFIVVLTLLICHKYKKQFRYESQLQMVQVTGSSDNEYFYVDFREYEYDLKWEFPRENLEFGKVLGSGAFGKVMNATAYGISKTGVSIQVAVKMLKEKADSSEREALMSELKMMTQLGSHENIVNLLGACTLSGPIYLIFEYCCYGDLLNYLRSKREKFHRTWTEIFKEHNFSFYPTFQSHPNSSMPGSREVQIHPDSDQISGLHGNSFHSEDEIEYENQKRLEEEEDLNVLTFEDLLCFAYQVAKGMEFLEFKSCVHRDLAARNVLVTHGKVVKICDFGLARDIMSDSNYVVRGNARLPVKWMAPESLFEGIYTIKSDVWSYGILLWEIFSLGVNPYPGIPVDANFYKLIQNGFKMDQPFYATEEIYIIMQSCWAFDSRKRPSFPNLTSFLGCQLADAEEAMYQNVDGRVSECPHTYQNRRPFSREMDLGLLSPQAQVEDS
The experiment in a line: AlphaScreen kinase assay with recombinant enzyme, FLT3-ITD. The note with it: 8pt; read-out: FLT3_ITD 8pt: IC50. A digest of the protocol: (§1)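 Compounds in DMSO added to enzyme plus biotin-poly(Glu4-Tyr) (30 nM) in assay buffer, then ATP added. Streptavidin donor beads added (20 min, RT), then PY20 acceptor beads (60 min, RT), both at 10 μg/mL final in stop/detection buffer. IC50 conditions: 10 μM FLT3-D835Y/ITD, 100 μM c-KIT.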
Background: Alpha assays give light when donor and acceptor beads are brought close together.

For another test, the target named is T2, FLT3-D835Y (Homo sapiens, UniProt P36888, D835Y).
T2 construct: purchased Invitrogen PV3967
T2 sequence (P36888 27-993 D835Y): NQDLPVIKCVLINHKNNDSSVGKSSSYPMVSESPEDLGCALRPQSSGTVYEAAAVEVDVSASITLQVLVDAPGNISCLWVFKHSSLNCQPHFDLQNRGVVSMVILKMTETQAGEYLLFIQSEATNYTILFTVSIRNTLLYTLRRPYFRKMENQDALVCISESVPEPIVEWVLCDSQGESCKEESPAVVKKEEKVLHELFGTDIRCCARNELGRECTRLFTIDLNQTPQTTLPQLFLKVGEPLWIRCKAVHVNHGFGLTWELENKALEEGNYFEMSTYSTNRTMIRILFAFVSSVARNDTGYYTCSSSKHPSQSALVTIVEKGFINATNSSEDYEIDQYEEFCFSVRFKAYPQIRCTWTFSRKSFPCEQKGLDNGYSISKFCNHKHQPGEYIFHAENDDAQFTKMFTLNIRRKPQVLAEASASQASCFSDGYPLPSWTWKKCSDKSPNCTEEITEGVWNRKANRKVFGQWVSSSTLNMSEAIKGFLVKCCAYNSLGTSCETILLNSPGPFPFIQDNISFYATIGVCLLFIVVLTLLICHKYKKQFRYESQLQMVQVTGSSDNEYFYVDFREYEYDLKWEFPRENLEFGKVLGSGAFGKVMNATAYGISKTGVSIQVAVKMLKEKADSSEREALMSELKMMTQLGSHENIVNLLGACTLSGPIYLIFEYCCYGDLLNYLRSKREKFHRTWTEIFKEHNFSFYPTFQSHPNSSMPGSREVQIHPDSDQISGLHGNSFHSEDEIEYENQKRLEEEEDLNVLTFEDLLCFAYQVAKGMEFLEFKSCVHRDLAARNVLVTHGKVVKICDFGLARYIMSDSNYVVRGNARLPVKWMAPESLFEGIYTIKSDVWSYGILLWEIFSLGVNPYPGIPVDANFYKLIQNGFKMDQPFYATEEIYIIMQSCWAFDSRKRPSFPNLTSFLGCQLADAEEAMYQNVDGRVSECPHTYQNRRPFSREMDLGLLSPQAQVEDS
The experiment in a line: AlphaScreen kinase assay with recombinant enzyme, FLT3-D835Y. The note with it: 8pt, GMean. The gist of the method:
as §1

In another test the target is T3, c-KIT (Homo sapiens, UniProt P10721).
T3 construct: purchased Millipore 14-559K
T3 sequence (P10721 26-976): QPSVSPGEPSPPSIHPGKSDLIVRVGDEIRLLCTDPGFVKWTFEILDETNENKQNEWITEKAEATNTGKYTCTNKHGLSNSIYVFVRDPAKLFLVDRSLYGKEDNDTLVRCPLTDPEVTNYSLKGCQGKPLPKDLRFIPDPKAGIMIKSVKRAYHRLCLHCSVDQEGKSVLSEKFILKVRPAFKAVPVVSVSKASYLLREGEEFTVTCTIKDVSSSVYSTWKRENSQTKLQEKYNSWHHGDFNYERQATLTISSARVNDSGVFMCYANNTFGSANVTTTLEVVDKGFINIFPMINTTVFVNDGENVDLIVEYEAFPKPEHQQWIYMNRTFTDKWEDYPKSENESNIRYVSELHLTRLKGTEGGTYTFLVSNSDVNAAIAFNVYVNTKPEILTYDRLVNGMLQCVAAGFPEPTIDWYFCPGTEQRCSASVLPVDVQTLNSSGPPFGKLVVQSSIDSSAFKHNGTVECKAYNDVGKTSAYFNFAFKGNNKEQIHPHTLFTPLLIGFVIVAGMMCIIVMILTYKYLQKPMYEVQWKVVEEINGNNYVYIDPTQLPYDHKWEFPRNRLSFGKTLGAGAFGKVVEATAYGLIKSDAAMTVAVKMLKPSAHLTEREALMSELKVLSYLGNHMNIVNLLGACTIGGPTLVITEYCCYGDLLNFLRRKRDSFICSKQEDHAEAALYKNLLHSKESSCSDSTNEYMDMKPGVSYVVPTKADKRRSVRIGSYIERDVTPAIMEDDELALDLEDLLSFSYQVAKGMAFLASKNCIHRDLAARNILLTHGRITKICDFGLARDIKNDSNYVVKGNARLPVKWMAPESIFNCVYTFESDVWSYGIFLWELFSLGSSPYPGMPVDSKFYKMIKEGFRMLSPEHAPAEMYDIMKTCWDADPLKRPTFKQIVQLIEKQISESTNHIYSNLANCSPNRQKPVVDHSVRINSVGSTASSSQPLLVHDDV
The experiment in a line: AlphaScreen kinase assay with recombinant enzyme, c-KIT. Particulars: 100ATP, 8pt, GMean. The gist of the method:
as §1

This passage reports IC50 results from patent US9938273B2 (Plexxikon Inc., priority 2015, dated 2018).

For orientation: IC50 means the concentration that inhibits the measured activity by half. Regarding `CNC1CCN(S(=O)(=O)c2cccc(-c3cnc4[nH]c(-c5ccccc5)cc4c3)n2)C1` (stereo not drawn) [Compound P-0063, N-methyl-1-[[6-(2-phenyl-1H-pyrrolo[2,3-b]pyridin-5-yl)-2-pyridyl]sulfonyl]pyrrolidin-3-amine], the IC50 on FLT3-ITD, at FLT3-D835Y and at c-KIT was 0.0001 to 10 µM in each case.
Regarding `CN1CCC(NC(=O)c2cccc(-c3cnc4[nH]c(-c5ccccc5)cc4c3)n2)C1` (stereo not drawn) [Compound P-0064, N-(1-methylpyrrolidin-3-yl)-6-(2-phenyl-1H-pyrrolo[2,3-b]pyridin-5-yl)pyridine-2-carboxamide], the IC50 at FLT3-ITD, at FLT3-D835Y and on c-KIT was 0.0001 to 10 µM in each case.
For the molecule `CNC1CCN(C(=O)c2cccc(-c3cnc4[nH]c(C5=CCC(C)(C)CC5)cc4c3)n2)C1` (stereo not drawn) [Compound P-0070, [6-[2-(4,4-dimethylcyclohexen-1-yl)-1H-pyrrolo[2,3-b]pyridin-5-yl]-2-pyridyl]-[3-(methylamino)pyrrolidin-1-yl]methanone], the IC50 at FLT3-ITD, at FLT3-D835Y and on c-KIT was 0.0001 to 10 µM each time.
Turning to `O=S(=O)(NC1CNC1)c1cccc(-c2cnc3[nH]c(-c4ccccc4)cc3c2)n1` [Compound P-0071, N-(azetidin-3-yl)-6-(2-phenyl-1H-pyrrolo[2,3-b]pyridin-5-yl)pyridine-2-sulfonamide], the values for the IC50 on FLT3-ITD, on FLT3-D835Y and on c-KIT were 0.0001 to 10 µM, 0.0001 to 10 µM and 10 to 50 µM, respectively.
With `O=S(=O)(NC1CCNC1)c1cccc(-c2cnc3[nH]c(-c4ccccc4)cc3c2)n1` (stereo not drawn) [Compound P-0072, 6-(2-phenyl-1H-pyrrolo[2,3-b]pyridin-5-yl)-N-pyrrolidin-3-yl-pyridine-2-sulfonamide], the IC50 on FLT3-ITD, on FLT3-D835Y and at c-KIT was 0.0001 to 10 µM in each case.
For `NC1CCN(S(=O)(=O)c2cccc(-c3cnc4[nH]c(-c5ccccc5)cc4c3)n2)CC1` [Compound P-0073, 1-[[6-(2-phenyl-1H-pyrrolo[2,3-b]pyridin-5-yl)-2-pyridyl]sulfonyl]piperidin-4-amine], the IC50 on FLT3-ITD, at FLT3-D835Y and at c-KIT was 0.0001 to 10 µM in each case.
With `O=C(Nc1cccc(-c2cnc3[nH]c(-c4ccccc4)cc3c2)n1)C1CNC1` [Compound P-0084, N-[6-(2-phenyl-1H-pyrrolo[2,3-b]pyridin-5-yl)-2-pyridyl]azetidine-3-carboxamide], the IC50 at FLT3-ITD, at FLT3-D835Y and on c-KIT was 0.0001 to 10 µM each time.
With `O=C(c1cccc(-c2cnc3[nH]c(-c4ccccc4)cc3c2)n1)N1CCC(NC2CC2)C1` (stereo not drawn) [Compound P-0085, [3-(cyclopropylamino)pyrrolidin-1-yl]-[6-(2-phenyl-1H-pyrrolo[2,3-b]pyridin-5-yl)-2-pyridyl]methanone], the IC50 on FLT3-ITD, on FLT3-D835Y and on c-KIT was 0.0001 to 10 µM in each case.
As for `O=S(=O)(NC1CCNCC1)c1cccc(-c2cnc3[nH]c(-c4ccccc4)cc3c2)n1` [Compound P-0086, 6-(2-phenyl-1H-pyrrolo[2,3-b]pyridin-5-yl)-N-(4-piperidyl)pyridine-2-sulfonamide], the IC50 at FLT3-ITD, on FLT3-D835Y and on c-KIT was 0.0001 to 10 µM each time.
`NC1CCC(NS(=O)(=O)c2cccc(-c3cnc4[nH]c(-c5ccccc5)cc4c3)n2)CC1` (stereo not drawn) [Compound P-0088, N-(4-aminocyclohexyl)-6-(2-phenyl-1H-pyrrolo[2,3-b]pyridin-5-yl)pyridine-2-sulfonamide]: the IC50 on FLT3-ITD, at FLT3-D835Y and on c-KIT was 0.0001 to 10 µM throughout.
On to `O=C(c1cccc(-c2cnc3[nH]c(-c4ccccc4)cc3c2)n1)N1CC(F)(F)C1` [Compound P-0090, (3,3-difluoroazetidin-1-yl)-[6-(2-phenyl-1H-pyrrolo[2,3-b]pyridin-5-yl)-2-pyridyl]methanone], for which the IC50 at FLT3-ITD was 0.0001 to 10 µM; on FLT3-D835Y it was 0.0001 to 10 µM; at c-KIT, 50 to 100 µM.
On to `COC1CN(C(=O)c2cccc(-c3cnc4[nH]c(-c5ccccc5)cc4c3)n2)C1` [Compound P-0091, (3-methoxyazetidin-1-yl)-[6-(2-phenyl-1H-pyrrolo[2,3-b]pyridin-5-yl)-2-pyridyl]methanone], for which the 50% inhibitory concentration (IC50) at FLT3-ITD was in the range of 0.0001 to 10 µM; on FLT3-D835Y it was 0.0001 to 10 µM; on c-KIT, 50 to 100 µM.
Consider `CC1(C#N)CCN(C(=O)c2cccc(-c3cnc4[nH]c(-c5ccccc5)cc4c3)n2)CC1` [Compound P-0094, 4-methyl-1-[6-(2-phenyl-1H-pyrrolo[2,3-b]pyridin-5-yl)pyridine-2-carbonyl]piperidine-4-carbonitrile], for which the concentration for half-maximal inhibition (IC50) on FLT3-ITD lay within 0.0001 to 10 µM; on FLT3-D835Y it was 0.0001 to 10 µM; at c-KIT, 50 to 100 µM.
For `COC1CCN(C(=O)c2cccc(-c3cnc4[nH]c(-c5ccccc5)cc4c3)n2)CC1` [Compound P-0098, (4-methoxy-1-piperidyl)-[6-(2-phenyl-1H-pyrrolo[2,3-b]pyridin-5-yl)-2-pyridyl]methanone], the results for the concentration for half-maximal inhibition (IC50) at FLT3-ITD, at FLT3-D835Y and at c-KIT were 0.0001 to 10 µM, 0.0001 to 10 µM and 50 to 100 µM, respectively.
Regarding `CS(=O)(=O)NC1CCN(C(=O)c2cccc(-c3cnc4[nH]c(-c5ccccc5)cc4c3)n2)C1` (stereo not drawn) [Compound P-0101, N-[1-[6-(2-phenyl-1H-pyrrolo[2,3-b]pyridin-5-yl)pyridine-2-carbonyl]pyrrolidin-3-yl]methanesulfonamide], the figures for the IC50 on FLT3-ITD, at FLT3-D835Y and at c-KIT were 0.0001 to 10 µM, 0.0001 to 10 µM and 50 to 100 µM, respectively.
Turning to `O=C(c1cccc(-c2cnc3[nH]c(-c4ccccc4)cc3c2)n1)N1CCC(N2CCOCC2)C1` (stereo not drawn) [Compound P-0102, (3-morpholinopyrrolidin-1-yl)-[6-(2-phenyl-1H-pyrrolo[2,3-b]pyridin-5-yl)-2-pyridyl]methanone], the IC50 on FLT3-ITD fell in the range of 0.0001 to 10 µM; on FLT3-D835Y it was 0.0001 to 10 µM; on c-KIT, 50 to 100 µM.
As to `O=C(c1cccc(-c2cnc3[nH]c(-c4ccccc4)cc3c2)n1)N1CCC(C(F)(F)F)C1` (stereo not drawn) [Compound P-0103, [6-(2-phenyl-1H-pyrrolo[2,3-b]pyridin-5-yl)-2-pyridyl]-[3-(trifluoromethyl)pyrrolidin-1-yl]methanone], the IC50 on FLT3-ITD fell in the range of 0.0001 to 10 µM; on FLT3-D835Y it was 0.0001 to 10 µM; at c-KIT, 50 to 100 µM.
As to `CN(C)C1CCN(C(=O)c2cccc(-c3cnc4[nH]c(-c5ccccc5)cc4c3)n2)C1` (stereo not drawn) [Compound P-0104, [3-(dimethylamino)pyrrolidin-1-yl]-[6-(2-phenyl-1H-pyrrolo[2,3-b]pyridin-5-yl)-2-pyridyl]methanone], the IC50 at FLT3-ITD, at FLT3-D835Y and on c-KIT was 0.0001 to 10 µM each time.
